In ChEMBL document CHEMBL1201862, “PubChem BioAssay data set” (2004):
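48-hour exposure; five concentrations; linearly interpolated endpoints. GI50: concentration for 50% inhibition of growth.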 Activity calls are given as the source filed them. Cut-off read from the data, not from the text of the source: active = GI50 up to about 1.1 µM and inactive = higher.

Experiments:
Assay in all cases: NCI anticancer screen, dose series, 48 h
M14 = test system: M14
HCT-15 = test system: HCT-15
K562 = test system: K562
RXF 393 = test system: RXF 393
Hs-578T = test system: Hs-578T
HOP-92 = test system: HOP-92
ACHN = test system: ACHN
OVCAR-4 = test system: OVCAR-4
HCT-116 = test system: HCT-116
Malme-3M = test system: Malme-3M
SF-539 = test system: SF-539
DU-145 = test system: DU-145
BT-549 = test system: BT-549
NCI-H460 = test system: NCI-H460
UACC-62 = test system: UACC-62
NCI-H23 = test system: NCI-H23
HOP-62 = test system: HOP-62
SK-MEL-5 = test system: SK-MEL-5
KM12 = test system: KM12

Compound	GI50 (M14)	GI50 (HCT-15) [µM]	GI50 (K562)	GI50 (RXF 393)	GI50 (Hs-578T)	GI50 (HOP-92)	GI50 (ACHN)	GI50 (OVCAR-4)	GI50 (HCT-116)	GI50 (Malme-3M)	GI50 (SF-539)	GI50 (DU-145)	GI50 (BT-549)	GI50 (NCI-H460)	GI50 (UACC-62)	GI50 (NCI-H23)	GI50 (HOP-62)	GI50 (SK-MEL-5)	GI50 (KM12)
O=C(Nc1cccc2cnccc12)c1cc2c(cc1Cl)Sc1nccn1S2(=O)=O	> 100 µM (inactive)	8.71	16.2 µM (inactive)	8.2 µM (inactive)	20.1 µM (inactive)	21.4 µM (inactive)	28.3 µM (inactive)	15.2 µM (inactive)	4.74 µM (inactive)	19.1 µM (inactive)	14.6 µM (inactive)	13.6 µM (inactive)	10.4 µM (inactive)	7.82 µM (inactive)	12.4 µM (inactive)	6.67 µM (inactive)	14 µM (inactive)	12.1 µM (inactive)	4.66 µM (inactive)
C[C@]12OC[C@H](c3ccccc3)N1C(=O)C1[C@H]2CC12SCCS2 (stereo not given in full)	> 100 µM (inactive)	> 100	> 100 µM (inactive)	> 100 µM (inactive)	> 100 µM (inactive)	> 100 µM (inactive)	> 100 µM (inactive)	> 100 µM (inactive)	> 100 µM (inactive)	> 100 µM (inactive)	> 100 µM (inactive)	> 100 µM (inactive)	> 100 µM (inactive)	> 100 µM (inactive)	> 100 µM (inactive)	> 100 µM (inactive)	> 100 µM (inactive)	> 100 µM (inactive)	> 100 µM (inactive)
C/C(=N\NC(=S)NCCNC(=S)N/N=C(\C)c1ccccn1)c1ccccn1	1.5 µM (inactive)	1.84	3.17 µM (inactive)	3.16 µM (inactive)	> 73.1 µM (inactive)	3.91 µM (inactive)	1.26 µM (inactive)	2.9 µM (inactive)	2.75 µM (inactive)	2.54 µM (inactive)	2.36 µM (inactive)	2.32 µM (inactive)	2.36 µM (inactive)	1.61 µM (inactive)	2.62 µM (inactive)	4.41 µM (inactive)	1.83 µM (inactive)	1.74 µM (inactive)	3.87 µM (inactive)
CSC(=O)/C=C1\SS/C(=C\C(=O)SC)S1	2.09 µM (inactive)	2.06	2.79 µM (inactive)	1.24 µM (inactive)	3.05 µM (inactive)	2.83 µM (inactive)	2.99 µM (inactive)	3.75 µM (inactive)	1.69 µM (inactive)	2.13 µM (inactive)	2.72 µM (inactive)	10.5 µM (inactive)	1.69 µM (inactive)	2.26 µM (inactive)	0.796 µM (active)	3.08 µM (inactive)	7.35 µM (inactive)	2.65 µM (inactive)	5.05 µM (inactive)
NC1CC(=O)c2c(I)sc(I)c21 (stereo not given)	27.2 µM (inactive)	9.31	8.95 µM (inactive)	21.4 µM (inactive)	30.3 µM (inactive)	22.8 µM (inactive)	20.9 µM (inactive)	20.1 µM (inactive)	12.4 µM (inactive)	13.7 µM (inactive)	8.89 µM (inactive)	24 µM (inactive)	18.4 µM (inactive)	17.7 µM (inactive)	16.7 µM (inactive)	17.1 µM (inactive)	19.1 µM (inactive)	27.6 µM (inactive)	15.4 µM (inactive)
O=[N+]([O-])C(=C/c1cccs1)/C(=C\c1cccs1)[N+](=O)[O-]	1.04 µM (active)	0.199	0.272 µM (active)	0.157 µM (active)	1.13 µM (inactive)	0.802 µM (active)	0.543 µM (active)	1.87 µM (inactive)	1.11 µM (active)	1.03 µM (active)	0.212 µM (active)	1.43 µM (inactive)	1.35 µM (inactive)	0.597 µM (active)	0.778 µM (active)	0.787 µM (active)	2.47 µM (inactive)	1.08 µM (active)	2.34 µM (inactive)
N#CC(c1ccccc1)N1CCCN(C(C#N)c2ccccc2)C1c1ccccc1O (stereo not given)	> 100 µM (inactive)	> 100	> 100 µM (inactive)	> 100 µM (inactive)	> 100 µM (inactive)	22.7 µM (inactive)	> 100 µM (inactive)	> 100 µM (inactive)	93.5 µM (inactive)	> 100 µM (inactive)	52.1 µM (inactive)	> 100 µM (inactive)	> 100 µM (inactive)	> 100 µM (inactive)	> 100 µM (inactive)	> 100 µM (inactive)	> 100 µM (inactive)	> 100 µM (inactive)	> 100 µM (inactive)
Nc1nc(=O)n(C2CC(O)C(CO)O2)c2nc(-c3ccc(-c4ccccc4)cc3)cnc12 (stereo not given)	> 100 µM (inactive)	> 100	38 µM (inactive)	31.2 µM (inactive)	36.3 µM (inactive)	56.2 µM (inactive)	> 100 µM (inactive)	> 100 µM (inactive)	> 100 µM (inactive)	41.7 µM (inactive)	30 µM (inactive)	> 100 µM (inactive)	> 100 µM (inactive)	> 100 µM (inactive)	25.3 µM (inactive)	99.3 µM (inactive)	27.2 µM (inactive)	15.9 µM (inactive)	> 10 µM (inactive)
Clc1ccc(C2C3COc4ccccc4C3=NN2c2ccccc2)cc1 (stereo not given)	96.8 µM (inactive)	17.9	3.19 µM (inactive)	95.5 µM (inactive)	54.2 µM (inactive)	> 100 µM (inactive)	> 100 µM (inactive)	> 100 µM (inactive)	33.2 µM (inactive)	> 100 µM (inactive)	34.4 µM (inactive)	> 80.5 µM (inactive)	68.5 µM (inactive)	> 100 µM (inactive)	64.7 µM (inactive)	> 91.6 µM (inactive)	> 100 µM (inactive)	> 82.8 µM (inactive)	20.7 µM (inactive)
CC1=NN(C(=O)CC(=O)Nc2ccc(C)cc2)C(=O)C1/N=N\c1ccc(S(=O)(=O)c2ccc(/N=N/C3C(=O)N(C(=O)CC(=O)Nc4ccc(C)cc4)N=C3C)cc2)cc1 (stereo not given)	38 µM (inactive)	44.6	4.98 µM (inactive)	> 100 µM (inactive)	93.8 µM (inactive)	> 100 µM (inactive)	62.8 µM (inactive)	> 100 µM (inactive)	43.4 µM (inactive)	67 µM (inactive)	> 100 µM (inactive)	> 100 µM (inactive)	> 100 µM (inactive)	38.5 µM (inactive)	65.9 µM (inactive)	> 100 µM (inactive)	> 100 µM (inactive)	58.9 µM (inactive)	65.6 µM (inactive)
CCOP(=O)(OCC)/C(C#N)=C/c1[nH]cnc1C	> 100 µM (inactive)	> 100	> 100 µM (inactive)	> 100 µM (inactive)	> 100 µM (inactive)	> 100 µM (inactive)	> 100 µM (inactive)	> 100 µM (inactive)	> 100 µM (inactive)	> 100 µM (inactive)	49.5 µM (inactive)	> 100 µM (inactive)	> 100 µM (inactive)	> 100 µM (inactive)	> 100 µM (inactive)	> 100 µM (inactive)	> 100 µM (inactive)	> 100 µM (inactive)	> 100 µM (inactive)
N#Cc1c(-c2ccccc2)cc(Nc2ccc(Cl)cc2)n2c1nc1ccccc12	4.23 µM (inactive)	3.37	1.49 µM (inactive)	4.35 µM (inactive)	1.59 µM (inactive)	0.397 µM (active)	3.03 µM (inactive)	3.23 µM (inactive)	1.96 µM (inactive)	5.16 µM (inactive)	4.39 µM (inactive)	3.45 µM (inactive)	4.59 µM (inactive)	1.67 µM (inactive)	0.975 µM (active)	2.64 µM (inactive)	3.67 µM (inactive)	1.46 µM (inactive)	2.94 µM (inactive)
CC(=O)c1ccc2c3c1O[C@H]1c4[nH]c5ccccc5c4C[C@@]4(O)[C@@H](C2)N(CC2CC2)CC[C@]314	16.9 µM (inactive)	8.67	16.8 µM (inactive)	13.8 µM (inactive)	0.933 µM (active)	14.5 µM (inactive)	17.2 µM (inactive)	20.6 µM (inactive)	15.5 µM (inactive)	21.3 µM (inactive)	13.6 µM (inactive)	20.6 µM (inactive)	14.5 µM (inactive)	0.497 µM (active)	16.5 µM (inactive)	17.7 µM (inactive)	21 µM (inactive)	16 µM (inactive)	21.3 µM (inactive)
CC(=O)O[C@H]1C(=O)[C@@]2(C)[C@H]([C@H](OC(=O)c3ccccc3)[C@@]3(O)C[C@H](O)C(C)=C1C3(C)C)[C@]1(OC(C)=O)CO[C@@H]1C[C@@H]2O	28.6 µM (inactive)	53.3	55.8 µM (inactive)	37.1 µM (inactive)	19 µM (inactive)	> 100 µM (inactive)	> 100 µM (inactive)	> 100 µM (inactive)	30.5 µM (inactive)	> 100 µM (inactive)	32.1 µM (inactive)	34.7 µM (inactive)	32.4 µM (inactive)	24.2 µM (inactive)	36 µM (inactive)	39.1 µM (inactive)	54 µM (inactive)	35.8 µM (inactive)	15.2 µM (inactive)
Cc1[nH]c2ccccc2c1/C=N/c1ccc(/N=C/c2c(C)[nH]c3ccccc23)cc1	71.3 µM (inactive)	32	21.2 µM (inactive)	53 µM (inactive)	47 µM (inactive)	25.5 µM (inactive)	49.1 µM (inactive)	26.4 µM (inactive)	17.5 µM (inactive)	30.8 µM (inactive)	21.4 µM (inactive)	37.4 µM (inactive)	47.9 µM (inactive)	41.2 µM (inactive)	42.6 µM (inactive)	29.1 µM (inactive)	25.1 µM (inactive)	17.2 µM (inactive)	16.4 µM (inactive)
